The results in this text go back to ChEMBL document CHEMBL1131842, “Synthesis and estrogen receptor binding affinity of a porphyrin-estradiol conjugate for targeted photodynamic therapy of cancer” (Bioorg Med Chem Lett, 1999).

This assay has as its target Estrogen receptor (Homo sapiens, UniProt Q92731+P03372). Description: Displacement of [3H]estradiol from estrogen receptor-ligand binding domain. The class given is protein assay.

Compound `C[C@]12CC(CCOC(=O)CCCNC(=O)c3ccc(-c4c5ccc([nH]5)c(-c5ccccc5)c5nc(c(-c6ccccc6)c6nc(c(-c7ccccc7)c7ccc4[nH]7)C=C6)C=C5)cc3)[C@@H]3c4ccc(O)cc4CC[C@H]3[C@@H]1CCC2O` (stereo partly specified) yielded an EC50 of 274 nM.
